Measured values published in ChEMBL document CHEMBL1128686, “Technetium-99m-labeled HOE 140: a potential bradykinin B2 receptor imaging agent” (J Med Chem, 1995).

Target: T1, B2 bradykinin receptor (Cavia porcellus, UniProt O70526)
T1 sequence (O70526 whole entry): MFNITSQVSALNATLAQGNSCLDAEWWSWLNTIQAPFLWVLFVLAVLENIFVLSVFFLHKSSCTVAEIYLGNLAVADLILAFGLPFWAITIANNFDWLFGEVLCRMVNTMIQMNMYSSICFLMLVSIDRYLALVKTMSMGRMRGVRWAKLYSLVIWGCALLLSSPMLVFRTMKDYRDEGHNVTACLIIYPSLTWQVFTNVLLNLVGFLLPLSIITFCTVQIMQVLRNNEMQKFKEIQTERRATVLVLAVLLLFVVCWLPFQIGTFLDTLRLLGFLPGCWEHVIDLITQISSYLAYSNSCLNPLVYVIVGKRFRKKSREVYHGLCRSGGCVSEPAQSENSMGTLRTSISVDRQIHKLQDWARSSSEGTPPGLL
Assay: In vitro antagonistic activity for Bradykinin receptor B2 by guinea pig ileal membrane receptor assay.
Type: functional

NC(N)=NCCC[C@@H](N)C(=O)N[C@@H](CCCN=C(N)N)C(=O)N1CCC[C@H]1C(=O)N1C[C@H](O)C[C@H]1C(=O)NCC(=O)N[C@@H](Cc1cccs1)C(=O)N[C@@H](CO)C(=O)N1Cc2ccccc2C[C@@H]1C(=O)N1[C@H](C(=O)N[C@@H](CCCN=C(N)N)C(=O)O)C[C@@H]2CCCC[C@@H]21 [ICATIBANT]
IC50: 1.07 nM
